According to patent US9931347B2, “Pharmaceutical compound” (IOmet Pharma Ltd., priority 2013, dated 2018):

Key:
[1] = molecular target: T1, IDO (SKOV3 human ovarian adenocarcinoma cells, IFN-γ induced) (Homo sapiens, UniProt P14902); test: SKOV3 Kynurenine cell based assay; details: IDO induced by 500 ng/ml IFN-γ, 500 μM L-tryptophan, 48 hours
T1 construct: IDO expression was induced in the SKOV3 cells by the addition of 500 ng/ml IFN-γ; endogenous in cells; host or cells: SKOV3 human ovarian adenocarcinoma cells, induced with IFN-γ
T1 sequence (P14902 whole entry): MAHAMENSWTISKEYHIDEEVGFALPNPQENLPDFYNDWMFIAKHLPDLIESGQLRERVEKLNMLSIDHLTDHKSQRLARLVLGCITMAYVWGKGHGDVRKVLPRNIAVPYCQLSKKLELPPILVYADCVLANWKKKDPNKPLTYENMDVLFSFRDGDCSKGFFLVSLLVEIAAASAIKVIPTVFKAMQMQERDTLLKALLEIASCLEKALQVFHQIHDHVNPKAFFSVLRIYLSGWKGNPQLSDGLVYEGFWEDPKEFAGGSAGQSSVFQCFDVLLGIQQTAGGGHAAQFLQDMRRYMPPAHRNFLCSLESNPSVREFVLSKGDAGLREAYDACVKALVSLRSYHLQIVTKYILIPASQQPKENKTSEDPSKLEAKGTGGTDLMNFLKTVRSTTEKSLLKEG
In short: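 IFN-γ (500 ng/ml) induced IDO in SKOV3 cells, seeded at 40,000/well in phenol red-free RPMI with 10% FCS, 2 mM L-glutamine and 500 μM L-tryptophan. Cells were incubated with or without compound at 37° C for 48 h. Supernatant kynurenine was detected with Ehrlich's reagent.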

[2] = molecular target: T2, TDO (A172 human glioblastoma cells) (Homo sapiens, UniProt P48775); test: A172 Kynurenine cell based assay; details: 500 μM L-tryptophan, 48 hours, kynurenine by Erhlich's reagent
T2 construct: This assay utilised cancer cells which expressed either TDO or IDO; endogenous in cells; host or cells: A172 human glioblastoma cells
T2 sequence (P48775 whole entry): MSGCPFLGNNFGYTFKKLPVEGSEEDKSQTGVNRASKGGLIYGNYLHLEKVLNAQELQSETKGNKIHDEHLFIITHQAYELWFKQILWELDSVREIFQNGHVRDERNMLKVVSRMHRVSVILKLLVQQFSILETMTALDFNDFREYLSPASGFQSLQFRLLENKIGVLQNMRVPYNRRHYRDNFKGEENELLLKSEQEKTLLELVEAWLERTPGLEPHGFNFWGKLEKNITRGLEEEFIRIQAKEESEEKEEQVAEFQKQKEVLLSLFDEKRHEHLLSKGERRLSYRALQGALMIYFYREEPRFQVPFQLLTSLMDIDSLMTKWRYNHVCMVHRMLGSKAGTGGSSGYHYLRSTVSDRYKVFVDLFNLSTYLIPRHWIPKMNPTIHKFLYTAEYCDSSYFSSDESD
In short: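 A172 glioblastoma cells (30,000/well) cultured at 37° C. in phenol red-free RPMI with 10% FCS, 2 mM L-glutamine and 500 μM L-tryptophan, with or without test compound. After 48 hours, kynurenine in the supernatant was read with Erhlich's reagent (5 min) as absorbance at 490 nm.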

Recombinant human IDO = Recombinant human IDO (Homo sapiens, UniProt P14902); test: hIDO biochemical coupled assay; details: 45 μM L-tryptophan, coupled with kynurenine formamidase
Chain of Recombinant human IDO (P14902 whole entry): as the sequence (P14902 whole entry) above
In short: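 Recombinant human IDO incubated in 50 mM KPO4 (pH 7.0), 0.5 mM EGTA, 0.5 mM EDTA, 0.05% Triton X100, 20 mM ascorbate, 10 μM methylene blue, 500 U/ml catalase and 50 μg/ml kynurenine formamidase. N-formylkynurenine converted to kynurenine, quantified by fluorescence after Ehrlich's reagent.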

Recombinant human TDO = Recombinant human TDO (Homo sapiens, UniProt P48775); test: hTDO biochemical coupled assay; details: 330 μM L-tryptophan, coupled with kynurenine formamidase
Chain of Recombinant human TDO (P48775 whole entry): as the sequence (P48775 whole entry) above
In short: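 Recombinant human TDO with 330 μM L-tryptophan in 50 mM KPO4 pH 7.0 containing EGTA, EDTA, Triton X100, ascorbate, methylene blue, catalase and kynurenine formamidase (KynB), 17 min at room temperature. Stopped with Ehrlich's reagent, 5 min, then kynurenine fluorescence read (Ex475, Em530).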

Row | SKOV3 Kynurenine cell based assay pIC50 [1] | A172 Kynurenine cell based assay pIC50 [2] | hIDO biocehmical assay pIC50 (Recombinant human IDO) | hTDO biochemical assay pIC50 (Recombinant human TDO) | Compound
1 | + (+ = pIC50 4.00-4.99) | + (+ = pIC50 4.00-4.99) | +− (+− = pIC50 <4.00) | ++ (++ = pIC50 5.00-5.99) | CC(=O)N1CC=C(c2c[nH]c3ccc(C)cc23)CC1 [Compound 89]
2 | + (+ = pIC50 4.00-4.99) | ++ (++ = pIC50 5.00-5.99) | +− (+− = pIC50 <4.00) | ++ (++ = pIC50 5.00-5.99) | CS(=O)(=O)N1CC=C(c2c[nH]c3ccc(F)cc23)CC1 [Compound 90]
3 | + (+ = pIC50 4.00-4.99) | ++ (++ = pIC50 5.00-5.99) | +− (+− = pIC50 <4.00) | + (+ = pIC50 4.00-4.99) | Cc1ccc2[nH]cc(C3=CCN(S(C)(=O)=O)CC3)c2c1 [Compound 92]
4 | +− (+− = pIC50 <4.00) | +− (+− = pIC50 <4.00) | +− (+− = pIC50 <4.00) | + (+ = pIC50 4.00-4.99) | COc1cccc2c(C3=CCN(S(C)(=O)=O)CC3)c[nH]c12 [Compound 93]
5 | +− (+− = pIC50 <4.00) | + (+ = pIC50 4.00-4.99) | +− (+− = pIC50 <4.00) | + (+ = pIC50 4.00-4.99) | CC(=O)N1CC=C(c2c[nH]c3c(F)cccc23)CC1 [Compound 94]
6 | +− (+− = pIC50 <4.00) | + (+ = pIC50 4.00-4.99) | +− (+− = pIC50 <4.00) | +− (+− = pIC50 <4.00) | CS(=O)(=O)N1CC=C(c2c[nH]c3c(F)cccc23)CC1 [Compound 100]
7 | + (+ = pIC50 4.00-4.99) | +++ (+++ = pIC50 ≥6.00) | +− (+− = pIC50 <4.00) | ++ (++ = pIC50 5.00-5.99) | CS(=O)(=O)N1CC=C(c2c[nH]c3cc(F)ccc23)CC1 [Compound 103]
8 | +− (+− = pIC50 <4.00) | +++ (+++ = pIC50 ≥6.00) | +− (+− = pIC50 <4.00) | +++ (+++ = pIC50 ≥6.00) | NS(=O)(=O)N1CC=C(c2c[nH]c3ccccc23)CC1 [Compound 162]
9 | +− (+− = pIC50 <4.00) | +++ (+++ = pIC50 ≥6.00) | +− (+− = pIC50 <4.00) | +++ (+++ = pIC50 ≥6.00) | NS(=O)(=O)N1CC=C(c2c[nH]c3cc(F)ccc23)CC1 [Compound 164]
10 | + (+ = pIC50 4.00-4.99) | ++ (++ = pIC50 5.00-5.99) | +− (+− = pIC50 <4.00) | + (+ = pIC50 4.00-4.99) | CC(=O)N1CC=C(c2c[nH]c3ccc(Cl)cc23)CC1 [Compound 165]
11 | + (+ = pIC50 4.00-4.99) | ++ (++ = pIC50 5.00-5.99) | +− (+− = pIC50 <4.00) | + (+ = pIC50 4.00-4.99) | CS(=O)(=O)N1CC=C(c2c[nH]c3ccc(Cl)cc23)CC1 [Compound 166]
12 | + (+ = pIC50 4.00-4.99) | ++ (++ = pIC50 5.00-5.99) | +− (+− = pIC50 <4.00) | ++ (++ = pIC50 5.00-5.99) | CC(=O)N1CC=C(c2c[nH]c3cc(F)c(F)cc23)CC1 [Compound 167]
13 | + (+ = pIC50 4.00-4.99) | +++ (+++ = pIC50 ≥6.00) | +− (+− = pIC50 <4.00) | ++ (++ = pIC50 5.00-5.99) | CS(=O)(=O)N1CC=C(c2c[nH]c3cc(F)c(F)cc23)CC1 [Compound 168]

The remaining lines, values behind:

Row | Compound | SKOV3 Kynurenine cell based assay pIC50 [1] | A172 Kynurenine cell based assay pIC50 [2] | hIDO biocehmical assay pIC50 (Recombinant human IDO) | hTDO biochemical assay pIC50 (Recombinant human TDO)
14 | CS(=O)(=O)N1CCC(c2c[nH]c3cccc(F)c23)CC1 [Compound 95] | +− (+− = pIC50 <4.00) | + (+ = pIC50 4.00-4.99) | +− (+− = pIC50 <4.00) | +− (+− = pIC50 <4.00)
15 | CC(=O)N1CCC(c2c[nH]c3cccc(F)c23)CC1 [Compound 98] | +− (+− = pIC50 <4.00) | + (+ = pIC50 4.00-4.99) | +− (+− = pIC50 <4.00) | +− (+− = pIC50 <4.00)
16 | CC(=O)N1CCC(c2c[nH]c3ncccc23)CC1 [Compound 99] | + (+ = pIC50 4.00-4.99) | +− (+− = pIC50 <4.00) | +− (+− = pIC50 <4.00) | +− (+− = pIC50 <4.00)
17 | CC(=O)N1CC=C(c2n[nH]c3ccccc23)CC1 [Compound 102] | +− (+− = pIC50 <4.00) | +− (+− = pIC50 <4.00) | +− (+− = pIC50 <4.00) | + (+ = pIC50 4.00-4.99)
18 | CC(=O)N1CC=C(c2c(C)[nH]c3ccccc23)CC1 [Compound 104] | + (+ = pIC50 4.00-4.99) | +− (+− = pIC50 <4.00) | +− (+− = pIC50 <4.00) | + (+ = pIC50 4.00-4.99)
19 | CC(=O)N1CC=C(c2c[nH]c3ncccc23)CC1 [Compound 105] | + (+ = pIC50 4.00-4.99) | +− (+− = pIC50 <4.00) | +− (+− = pIC50 <4.00) | + (+ = pIC50 4.00-4.99)
20 | CC(C)C(=O)N1CCC(c2c[nH]c3ccccc23)CC1 [Compound 106] | +− (+− = pIC50 <4.00) | + (+ = pIC50 4.00-4.99) | +− (+− = pIC50 <4.00) | +− (+− = pIC50 <4.00)
21 | CC(C)OCC(=O)N1CC=C(c2c[nH]c3cc(F)ccc23)CC1 [Compound 163] | + (+ = pIC50 4.00-4.99) | +++ (+++ = pIC50 ≥6.00) | +− (+− = pIC50 <4.00) | ++ (++ = pIC50 5.00-5.99)
22 | CCn1ncc(S(=O)(=O)N2CCC3(CC2)C(=O)Nc2ccccc23)c1C [Compound 173] | + (+ = pIC50 4.00-4.99) | + (+ = pIC50 4.00-4.99) | +− (+− = pIC50 <4.00) | +− (+− = pIC50 <4.00)
23 | CC(=O)N1CCC(c2c[nH]c3ccncc23)CC1 [Compound 174] | + (+ = pIC50 4.00-4.99) | + (+ = pIC50 4.00-4.99) | +− (+− = pIC50 <4.00) | +− (+− = pIC50 <4.00)
24 | CS(=O)(=O)N1CCC(c2c[nH]c3ccncc23)CC1 [Compound 175] | + (+ = pIC50 4.00-4.99) | + (+ = pIC50 4.00-4.99) | +− (+− = pIC50 <4.00) | +− (+− = pIC50 <4.00)
25 | CS(=O)(=O)N1CCC(c2c[nH]c3cnccc23)CC1 [Compound 176] | + (+ = pIC50 4.00-4.99) | + (+ = pIC50 4.00-4.99) | +− (+− = pIC50 <4.00) | +− (+− = pIC50 <4.00)
26 | CS(=O)(=O)N1CCC(C2C(=O)Nc3cc(F)ccc32)CC1 (stereo not drawn) [Compound 178] | ++ (++ = pIC50 5.00-5.99) | +− (+− = pIC50 <4.00) | +− (+− = pIC50 <4.00) | +− (+− = pIC50 <4.00)
27 | CC(=O)N1CCC(C2CNc3cc(F)ccc32)CC1 (stereo not drawn) [Compound 179] | +− (+− = pIC50 <4.00) | + (+ = pIC50 4.00-4.99) | +− (+− = pIC50 <4.00) | +− (+− = pIC50 <4.00)
